Data reported in US4728509A, “Aqueous liquid preparation” (Takeda Chemical Industries, Ltd., priority 1985, dated 1988).
Values after ≈ are worked out from the molar mass of the structure shown. Like-named read-outs stand apart in the source and are kept apart here.

Assays:
[1] = Stability test of compound (a) in solution, remaining ratio at 60° C. (Experimental Example 2); assay type: physicochemical; conditions: phosphate buffer, pH 7.5±0.1; for remaining at 1344 h: 60° C. after 8 weeks
Procedure: The stability of the compound (a) was tested by the following manner.
At first, the stability of the compound (a) without any adjuvant was tested for comparison.
Two samples were prepared by dissolving 100 mg and 250 mg each portion of the compound (a) in phosphate buffer. To each of the solutions was added a solution of sodium hydroxide to adjust the pH to 7.5±0.1, followed by addition of purified water to make the whole volume 100 ml, provided that the solution of 2.5 mg/ml was prepared at 40° C. Each solution was filled in a glass bottle, which was stored at 60° C. for evaluation of the stability.
The results were shown in Table 2 as remaining ratio (%).
Next, the effect of improving the stability of the compound (a), when a solubilizer of this invention was added to the solution containing the compound (a), was examined.
To each sample was added a given amount of a solubilizer as specified in the table, followed by working up in a similar manner to the above (pH 7.5±0.1) for evaluation of the stability.
The results were shown in Table 3 as remaining ratio (%).

[2] = Solubility test of compound (a) with and without solubilizers (Experimental Example 1; HPLC of filtrate); conditions: phosphate buffer, Solubility of Compound (a), 48 hours
Procedure: Solubility tests of the compound (a) (2-amino-7-isopropyl-5-oxo-5H-[1]-benzopyrano[2,3-b]pyridine-3-carboxylic acid) employing the solubilizers of this invention and, for comparison, employing various conventional solubilizers were performed.
The solubility was measured by the following manner:
An excess amount of the compound (a) was added to a given volume of a phosphate buffer, the mixture was sufficiently stirred, then the pH was adjusted to a given level, the mixture was allowed to stand at room temperature (25° C.) for 48 hours, the resultant was subjected to filtration with 0.45μ membrane filter, followed by measuring the concentration of the compound (a) in the filtrate by means of high performance liquid chromatography.

[3] = Solubility of compound (a); assay type: physicochemical

Work on `CC(C)c1ccc2oc3nc(N)c(C(=O)O)cc3c(=O)c2c1` [Compound (a), 2-amino-7-isopropyl-5-oxo-5H-[1]-benzopyrano[2,3-b]pyridine-3-carboxylic acid] yielded a remaining at 168 h ([1]; pH 7.5, compound (a) 1.0 mg/ml, PVP (MW 40,000) 20 mg/ml, 60° C. after 1 week) of 99.5%, a remaining at 336 h ([1]; pH 7.5, compound (a) 1.0 mg/ml, PVP (MW 40,000) 20 mg/ml, 60° C. after 2 weeks) of 99.2% and a remaining at 672 h ([1]; pH 7.5, compound (a) 1.0 mg/ml, PVP (MW 40,000) 20 mg/ml, 60° C. after 4 weeks) of 98.4%. It also gave a remaining at 1344 h ([1]; pH 7.5, compound (a) 1.0 mg/ml, PVP (MW 40,000) 20 mg/ml) of 98.1%, a remaining at 168 h ([1]; pH 7.5, compound (a) 2.5 mg/ml, PVP (MW 40,000) 50 mg/ml, 60° C. after 1 week) of 98.9% and a remaining at 336 h ([1]; pH 7.5, compound (a) 2.5 mg/ml, PVP (MW 40,000) 50 mg/ml, 60° C. after 2 weeks) of 99.5%. It also gave a remaining at 672 h ([1]; pH 7.5, compound (a) 2.5 mg/ml, PVP (MW 40,000) 50 mg/ml, 60° C. after 4 weeks) of 99.1%, a remaining at 1344 h ([1]; pH 7.5, compound (a) 2.5 mg/ml, PVP (MW 40,000) 50 mg/ml) of 97% and a remaining at 168 h ([1]; pH 7.5, compound (a) 5.0 mg/ml, PVP (MW 40,000) 10 mg/ml + caffeine 10 mg/ml, 60° C. after 1 week) of 98.9%. It also gave a remaining at 336 h ([1]; pH 7.5, compound (a) 5.0 mg/ml, PVP (MW 40,000) 10 mg/ml + caffeine 10 mg/ml, 60° C. after 2 weeks) of 99.5%, a remaining at 672 h ([1]; pH 7.5, compound (a) 5.0 mg/ml, PVP (MW 40,000) 10 mg/ml + caffeine 10 mg/ml, 60° C. after 4 weeks) of 98.1% and a remaining at 1344 h ([1]; pH 7.5, compound (a) 5.0 mg/ml, PVP (MW 40,000) 10 mg/ml + caffeine 10 mg/ml) of 98.2%. The remaining at 168 h ([1]; pH 7.5, compound (a) 10.0 mg/ml, PVP (MW 40,000) 50 mg/ml + β-CD 10 mg/ml, 60° C. after 1 week) was 98.7%, the remaining at 336 h ([1]; pH 7.5, compound (a) 10.0 mg/ml, PVP (MW 40,000) 50 mg/ml + β-CD 10 mg/ml, 60° C. after 2 weeks) was 100% and the remaining at 672 h ([1]; pH 7.5, compound (a) 10.0 mg/ml, PVP (MW 40,000) 50 mg/ml + β-CD 10 mg/ml, 60° C. after 4 weeks) was 98.3%. The remaining at 1344 h ([1]; pH 7.5, compound (a) 10.0 mg/ml, PVP (MW 40,000) 50 mg/ml + β-CD 10 mg/ml) was 97.3%, the remaining at 672 h ([1]; pH 7.5, no adjuvant, compound (a) 1.0 mg/ml, 60° C. after four weeks) was 85.4% and the remaining at 168 h ([1]; pH 7.5, no adjuvant, compound (a) 1.0 mg/ml, 60° C. after one week) was 99.2%. It also gave a remaining at 336 h ([1]; pH 7.5, no adjuvant, compound (a) 1.0 mg/ml, 60° C. after two weeks) of 97.2%, a remaining at 672 h ([1]; pH 7.5, no adjuvant, compound (a) 2.5 mg/ml, 60° C. after four weeks) of 66.8% and a remaining at 168 h ([1]; pH 7.5, no adjuvant, compound (a) 2.5 mg/ml, 60° C. after one week) of 92.1%. It also gave a remaining at 336 h ([1]; pH 7.5, no adjuvant, compound (a) 2.5 mg/ml, 60° C. after two weeks) of 80.5%, a solubility at 48 h ([2]; pH 6, aqueous buffer, Caffeine 5 mg/ml, pH 6.0, 25° C.) of 660 µg/mL (≈ 2.21 mM) and a solubility at 48 h ([2]; pH 6, aqueous buffer, Caffeine 10 mg/ml, pH 6.0, 25° C.) of 1650 µg/mL (≈ 5.53 mM). For the same compound, the solubility at 48 h ([2]; pH 6, aqueous buffer, Control, no solubilizer, pH 6.0, 25° C.) was 20 µg/mL (≈ 0.067 mM), the solubility at 48 h ([2]; pH 6, aqueous buffer, Polyvinylpyrrolidone (average molecular weight 40000) 10 mg/ml, pH 6.0, 25° C.) was 120 µg/mL (≈ 0.402 mM) and the solubility at 48 h ([2]; pH 6, aqueous buffer, Polyvinylpyrrolidone (average molecular weight 40000) 50 mg/ml, pH 6.0, 25° C.) was 320 µg/mL (≈ 1.07 mM). The solubility at 48 h ([2]; pH 6, aqueous buffer, Polyvinylpyrrolidone (average molecular weight 40000) 100 mg/ml, pH 6.0, 25° C.) was 1590 µg/mL (≈ 5.33 mM), the solubility at 48 h ([2]; pH 6, aqueous buffer, Sodium benzoate 20 mg/ml, pH 6.0, 25° C.) was 40 µg/mL (≈ 0.134 mM) and the solubility at 48 h ([2]; pH 6, aqueous buffer, Tween 80 10 mg/ml, pH 6.0, 25° C.) was 80 µg/mL (≈ 0.268 mM). It also gave a solubility at 48 h ([2]; pH 6, aqueous buffer, β-Cyclodextrin 10 mg/ml, pH 6.0, 25° C.) of 720 µg/mL (≈ 2.41 mM), a solubility at 48 h ([2]; pH 6.5, aqueous buffer, Caffeine 5 mg/ml, pH 6.5, 25° C.) of 1500 µg/mL (≈ 5.03 mM) and a solubility at 48 h ([2]; pH 6.5, aqueous buffer, Caffeine 10 mg/ml, pH 6.5, 25° C.) of 2670 µg/mL (≈ 8.95 mM). The solubility at 48 h ([2]; pH 6.5, aqueous buffer, Control, no solubilizer, pH 6.5, 25° C.) was 80 µg/mL (≈ 0.268 mM), the solubility at 48 h ([2]; pH 6.5, aqueous buffer, Isoniazid 10 mg/ml, pH 6.5, 25° C.) was 850 µg/mL (≈ 2.85 mM) and the solubility at 48 h ([2]; pH 6.5, aqueous buffer, Nicotinic acid amide 10 mg/ml, pH 6.5, 25° C.) was 820 µg/mL (≈ 2.75 mM). For the same compound, the solubility at 48 h ([2]; pH 6.5, aqueous buffer, Polyvinylpyrrolidone (average molecular weight 40000) 10 mg/ml, pH 6.5, 25° C.) was 420 µg/mL (≈ 1.41 mM), the solubility at 48 h ([2]; pH 6.5, aqueous buffer, Polyvinylpyrrolidone (average molecular weight 40000) 50 mg/ml, pH 6.5, 25° C.) was 1230 µg/mL (≈ 4.12 mM) and the solubility at 48 h ([2]; pH 6.5, aqueous buffer, Polyvinylpyrrolidone (average molecular weight 40000) 100 mg/ml, pH 6.5, 25° C.) was 4630 µg/mL (≈ 15.5 mM). The solubility at 48 h ([2]; pH 6.5, aqueous buffer, Sodium benzoate 20 mg/ml, pH 6.5, 25° C.) was 290 µg/mL (≈ 0.972 mM), the solubility at 48 h ([2]; pH 6.5, aqueous buffer, Tween 80 10 mg/ml, pH 6.5, 25° C.) was 470 µg/mL (≈ 1.58 mM) and the solubility at 48 h ([2]; pH 6.5, aqueous buffer, β-Cyclodextrin 10 mg/ml, pH 6.5, 25° C.) was 1400 µg/mL (≈ 4.69 mM). It also gave a solubility at 48 h ([2]; pH 7, aqueous buffer, Caffeine 5 mg/ml, pH 7.0, 25° C.) of 3720 µg/mL (≈ 12.5 mM), a solubility at 48 h ([2]; pH 7, aqueous buffer, Caffeine 10 mg/ml, pH 7.0, 25° C.) of 7050 µg/mL (≈ 23.6 mM) and a solubility at 48 h ([2]; pH 7, aqueous buffer, Control, no solubilizer, pH 7.0, 25° C.) of 330 µg/mL (≈ 1.11 mM). For the same compound, the solubility at 48 h ([2]; pH 7, aqueous buffer, Isoniazid 10 mg/ml, pH 7.0, 25° C.) was 1330 µg/mL (≈ 4.46 mM), the solubility at 48 h ([2]; pH 7, aqueous buffer, Nicotinic acid amide 10 mg/ml, pH 7.0, 25° C.) was 1210 µg/mL (≈ 4.06 mM) and the solubility at 48 h ([2]; pH 7, aqueous buffer, Polyvinylpyrrolidone (average molecular weight 40000) 10 mg/ml, pH 7.0, 25° C.) was 1060 µg/mL (≈ 3.55 mM). For the same compound, the solubility at 48 h ([2]; pH 7, aqueous buffer, Polyvinylpyrrolidone (average molecular weight 40000) 50 mg/ml, pH 7.0, 25° C.) was 3230 µg/mL (≈ 10.8 mM), the solubility at 48 h ([2]; pH 7, aqueous buffer, Polyvinylpyrrolidone (average molecular weight 40000) 100 mg/ml, pH 7.0, 25° C.) was 10000 µg/mL (≈ 33.7 mM) and the solubility at 48 h ([2]; pH 7, aqueous buffer, Sodium benzoate 20 mg/ml, pH 7.0, 25° C.) was 420 µg/mL (≈ 1.41 mM). For the same compound, the solubility at 48 h ([2]; pH 7, aqueous buffer, β-Cyclodextrin 10 mg/ml, pH 7.0, 25° C.) was 2300 µg/mL (≈ 7.71 mM), the solubility at 48 h ([2]; pH 7.5, aqueous buffer, Caffeine 5 mg/ml, pH 7.5, 25° C.) was 7440 µg/mL (≈ 24.9 mM) and the solubility at 48 h ([2]; pH 7.5, aqueous buffer, Caffeine 10 mg/ml, pH 7.5, 25° C.) was 9210 µg/mL (≈ 30.9 mM). It also gave a solubility at 48 h ([2]; pH 7.5, aqueous buffer, Control, no solubilizer, pH 7.5, 25° C.) of 1050 µg/mL (≈ 3.52 mM), a solubility at 48 h ([2]; pH 7.5, aqueous buffer, Isoniazid 10 mg/ml, pH 7.5, 25° C.) of 1560 µg/mL (≈ 5.23 mM) and a solubility at 48 h ([2]; pH 7.5, aqueous buffer, Nicotinic acid amide 10 mg/ml, pH 7.5, 25° C.) of 1530 µg/mL (≈ 5.13 mM). The solubility at 48 h ([2]; pH 7.5, aqueous buffer, Polyvinylpyrrolidone (average molecular weight 40000) 10 mg/ml, pH 7.5, 25° C.) was 3150 µg/mL (≈ 10.6 mM), the solubility at 48 h ([2]; pH 7.5, aqueous buffer, Polyvinylpyrrolidone (average molecular weight 40000) 50 mg/ml, pH 7.5, 25° C.) was 10400 µg/mL (≈ 34.7 mM) and the solubility at 48 h ([2]; pH 7.5, aqueous buffer, Polyvinylpyrrolidone (average molecular weight 40000) 100 mg/ml, pH 7.5, 25° C.) was 18500 µg/mL (≈ 61.9 mM). For the same compound, the solubility at 48 h ([2]; pH 7.5, aqueous buffer, Sodium benzoate 20 mg/ml, pH 7.5, 25° C.) was 1060 µg/mL (≈ 3.55 mM), the solubility at 48 h ([2]; pH 7.5, aqueous buffer, Tween 80 10 mg/ml, pH 7.5, 25° C.) was 1180 µg/mL (≈ 3.96 mM) and the solubility at 48 h ([2]; pH 7.5, aqueous buffer, β-Cyclodextrin 10 mg/ml, pH 7.5, 25° C.) was 4390 µg/mL (≈ 14.7 mM). For the same compound, the “amount of compound (a) dissolved by the aqueous liquid preparation of this invention” value ([3]; aqueous liquid preparation of this invention, pH 7.2-7.8) was ≥ 3 mg/mL, the solubility ([3]; neutral to alkaline region (pH 7.2-7.8), read-out: solubility) was ~1100 µg/mL (≈ 3.69 mM) and the solubility ([3]; water, 25° C., read-out: solubility in water) was ~10 µg/mL (≈ 0.0335 mM). The solubility ([3]; water, pH 7.5, cold chamber (5° C.), read-out: solubility in water) was 300 µg/mL (≈ 1.01 mM).
